Data on 2 molecules can be found in US6355428B1, “Nucleic acid ligand interaction assays” (Genelabs Technologies, Inc., priority 1998, dated 2002).

Experiment [1] deals with GCGGTATTT (mixed) DNA duplex (SEQ ID NO: 12). The experiment in a line: SPA direct binding assay, mixed sequence indicator duplex. The source says:
(§1) This technology can be applied to studies of ligand binding as disclosed herein. Example 13, below, describes the use of the assay in a high throughput screening method, using the SPA detection system. In this example, the first oligonucleotide is labeled with biotin, and is then tightly bound to streptavidin-coated SPA beads via the strong biotin/streptavidin interaction. These beads are impregnated with scintillant. The second oligonucleotide is labeled with a weak β-emitter, such as ^3H or ^33P. The radioactive second oligonucleotide is mixed with a solution of the beads under conditions at which the first and second oligonucleotides exist primarily as single strands, as described above. The signal will thus be low, as the oligonucleotides are non-hybridized. When ligand is added, the duplex form is stabilized, and the increased proximity of the radioactive isotope (e.g., ^3H, ^33P) in the second oligonucleotide causes the bead to which the first oligonucleotide is bound to scintillate. A signal thus indicates the presence of an effective binding ligand molecule; test sequences giving higher signals indicate the relative preference for different sequences.
(§2) The data in Table II compare raw signal counts from SPA assays using three different oligonucleotides and three concentrations (0, 100, and 500 nM) of the DNA binding drug distamycin. The oligonucleotides used were G/C-rich (CCGCGCC; SEQ ID NO: 6), A/T-rich (CTTTATTATTTT; SEQ ID NO: 2), or mixed sequence (GCGGTATTT; SEQ ID NO: 12) DNA duplexes. One strand of the duplex was synthesized with a 5′-biotin label, the other strand was labeled with ^33P, as described in Example 13.
Indicator oligonucleotides as shown in Table 1 were used in this assay, as shown in Table II and FIGS. 4A-E. One strand of each duplex was labeled with biotin at the 5′-end, and the complementary strand was 3′-labeled with ^33P. […] In the absence of ligand, and under these conditions, the oligonucleotides exist in single-stranded conformation. As a result, the oligonucleotide containing the radioactive label is not in close proximity to the SPA bead, and the light given off by the beads is low, i.e., at background. As a duplex-stabilizing ligand is added, the radioactive ^33P is brought into close proximity to the SPA bead, and the light emitted from the SPA bead increases. Accordingly, each of five known DNA-binding compounds was added in increasing concentrations, and the effect on scintillation count was observed, giving the results shown in FIGS. 4A-E.

The test system of experiment [2] is CTTTATTATTTT (AT-rich) DNA duplex (SEQ ID NO: 2). The experiment can be described thus: SPA direct binding assay, A/T-rich indicator duplex.
Description: as §1, §2
Indicator oligonucleotides as shown in Table 1 were used in this assay, as shown in Table II and FIGS. 4A-E. One strand of each duplex was labeled with biotin at the 5′-end, and the complementary strand was 3′-labeled with ^33P. The two complementary strands were incubated with streptavidin-coated SPA beads (Amersham, Arlington Heights, Ill.) at room temperature in a buffer containing 20 mM HEPES, pH 7.5, 0.1 mM EDTA, and 20 mM NaCl. In the absence of ligand, and under these conditions, the oligonucleotides exist in single-stranded conformation. As a result, the oligonucleotide containing the radioactive label is not in close proximity to the SPA bead, and the light given off by the beads is low, i.e., at background. As a duplex-stabilizing ligand is added, the radioactive ^33P is brought into close proximity to the SPA bead, and the light emitted from the SPA bead increases. Accordingly, each of five known DNA-binding compounds was added in increasing concentrations, and the effect on scintillation count was observed, giving the results shown in FIGS. 4A-E.

Experiment [3] has as its system RNA 5′-rCUAGAUCUGA-3′ (SEQ ID NO: 23) double stranded RNA probe. The experiment can be described thus: Fluorescence quenching direct binding assay, RNA. The conditions noted are these: change in fluorescence similar to single-stranded controls. On the procedure:
(§3) The specific examples described in this section employ fluorescence quenching as the detection system. In these examples, because conditions are adjusted to maintain the oligonucleotides in single-stranded form in the absence of the ligand, the assay starts with the system at a high or maximum level of fluorescence, and fluorescence generally decreases, depending on binding affinity, as the ligand is added.
In the Figure legends, RNA oligonucleotides are denoted by an “r” at the beginning of the sequence, and single stranded controls by “ss” at the end of the sequence. These single stranded sequence, are used alone in control experiments, which thus employ only an “F” strand and no complementary quenching strand. Any quenching of fluorescence that is not due to hybridization can thus be acounted for. Maximum quenching expected on complete hybridization of these oligonucleotides is 85-90%; therefore some signal remains after complete hybridization. The signal is plotted so that it is normalized to the control signal in the absence of ligand.
Netropsin has been shown in previous studies to bind preferentially to A/T rich regions of DNA. […] Netropsin also binds well to the sequence 5′-GCGGTATTT-3′ (SEQ ID NO: 12), which is a useful “indicator” probe (as discussed below), having both C/G and A/T rich sequences. […]

Experiment [4] relates to 5′-CTTTTTTTTT-3′ (SEQ ID NO: 1) F/Q indicator pair. The experiment can be described thus: Fluorescence quenching direct binding assay, A/T rich DNA. Particulars: increasing netropsin; tRNA added; room temperature. The method, then: as §3
(§4) In the Figure legends, RNA oligonucleotides are denoted by an “r” at the beginning of the sequence, and single stranded controls by “ss” at the end of the sequence. These single stranded sequence, are used alone in control experiments, which thus employ only an “F” strand and no complementary quenching strand. Any quenching of fluorescence that is not due to hybridization can thus be acounted for. Maximum quenching expected on complete hybridization of these oligonucleotides is 85-90%; therefore some signal remains after complete hybridization. […]
(§5) According to the general method described above, increasing amounts of netropsin or actinomycin, respectively, were added to mixtures of selected F/Q indicator oligonucleotide pairs, whose sequences are shown in the legends of FIGS. 1 and 3. […] The Figures show the level of fluorescence observed, relative to a control having no added drug, for each indicator pair (or single strand) as the level of added drug was increased. […]

In experiment [5] the test system is 5′-GCGGTATTT-3′ (SEQ ID NO: 12) F/Q indicator pair. The experiment can be described thus: Fluorescence quenching direct binding assay, mixed DNA. Particulars: increasing netropsin; tRNA added; room temperature. The method, then:
as §3, §4, §5

With `Cn1cc(NC(=O)c2cc(NC(=O)c3cc(NC=O)cn3C)cn2C)cc1C(=O)NCCC(=N)N` [Distamycin, distamycin], the CPM came out at 597 CPM in experiment [1] (100 nM Distamycin, 10 mM Na+); 868 CPM in experiment [1] (100 nM Distamycin, 50 mM Na+); 1951 CPM in experiment [1] (500 nM Distamycin, 10 mM Na+); 2234 CPM in experiment [1] (500 nM Distamycin, 50 mM Na+); 2218 CPM in experiment [2] (100 nM Distamycin, 10 mM Na+); 2448 CPM in experiment [2] (100 nM Distamycin, 50 mM Na+). In addition, the CPM in experiment [2] (500 nM Distamycin, 10 mM Na+) was found to be 3332 CPM; in experiment [2] (500 nM Distamycin, 50 mM Na+), 3352 CPM.

Regarding `Cn1cc(NC(=O)c2cc(NC(=O)CN=C(N)N)cn2C)cc1C(=O)NCCC(=N)N` [Netropsin, netropsin], the “binding (decrease in fluorescence, FIG. 3A)” value was “does not bind well” in experiment [3], “strongly prefers” in experiment [4] and “binds well” in experiment [5].
